# Reference: patent US10969380B2, “Simultaneous detection of cannibalism and senescence as prognostic marker for cancer” (Institut Gustave-Roussy, priority 2012, dated 2021)
# Key:
# Format in all cases: cell-based, human
# HCT116 cells [1] = assay: Cell-in-cell structures (cellular cannibalism) by confocal microscopy of CMFDA/CMTMR-labelled cocultures; conditions: for generation of cell-in-cell structures after supplementation with nucleotide: ATP or UTP supplementation, ROCK-dependent; for generation of cell-in-cell structures after TP53 inactivation in presence of inhibitor: TP53 inactivated by PFT-α, knockdown or knockout, 20 μM Y27632 or 100 μM z-VAD
# Method: FIG. 1. Identification of TP53 as repressor of cellular cannibalism. (A) Schematic representation of experimental procedure used to evaluate the ability to tumor suppressive depletion to enhance cell in cell internalization. (B) Frequencies of cell-in-cell structures induced by depletion of tumor suppressive proteins in HCT116. After 48 hours of transfection indicated siRNA, colorectal HCT116 cells were stained with CMTMR and CMFDA cell trachers, mixed and cultured during 24 hours. Quantification of cell-in-cell structures induced by depletions of tumor suppressor proteins was realized by confocal microscopy. The frequencies of cell-in-cell structures were determined for at least 300 cells in 3 independent experiments (mean+/−s.e.m, p<0.001). (C) Detection of cell-in-cell structures induced by depletion of TP53, as visualized by confocal microscopy. […] Representative micrographs of xy (scale bar, 5 μm), xz (scale bar, 4 μm) and yz (scale bar, 1 μm) optical sections are shown. Images are representative of at least four independent experiments. (D) Representative micrographs of cell-in-cell structures showing that after depletion of TP53 by two specific siRNAs, (red) CMTR labeled HCT116 cells internalized (red) CMTR labeled HCT116 cells (noted R(R)) or (green) CMFDA labeled HCT116 cells (noted R(G)), and (green) CMFDA labeled HCT116 cells engulfed (red) CMTR labeled HCT116 cells (noted G(R)) or (green) CMFDA labeled HCT116 cells (noted G(G)) (scale, 5 μm). (E) Frequencies of cell-in-cell structures showing R(R), R(G), G(R) or G(G) cell internalization detected after depletion of TP53 by two distinct siRNAs (as compare to control). The frequencies of cell-in-cell structures were determined for at least 300 cells in 3 independent experiments (mean+/−s.e.m, p<0.001). (F) Cell-in-cell structures induced by 10 μM PFT-α, TP53 knockdown, or TP53 knockout in HCT116. Cell-in-cell structures were identified by b-catenin (white), CMFDA (green) and CMTMR (red) staining of internalizing HCT116 cells. Images are representative of at least four independent experiments (scale bar in a, 5 μm and scale bar in b 1 μm). (G) Frequencies of cell-in-cell structures induced by 10 μM PFT-α, TP53 knockdown, or TP53 knockout in HCT116 in presence or in absence of 20 μM of ROCK inhibitor (Y27632) or 100 μM of pan-caspase inhibitor (z-VAD). The frequencies of cell-in-cell structures were determined for at least 300 cells in 3 independent experiments (mean+/−s.e.m, p<0.001). (H) Detection of cell-in-cell structures in TP53 depleted human diploid fibroblasts strain WI38, as visualized by confocal microscopy. […] Representative micrographs of xy (scale bar, 5 μm), xz (scale bar, 4 μm) and yz (scale bar, 1 μm) optical sections are shown. Images are representative of at least four independent experiments. (1) Frequencies of cell-in-cell structures induced by depletion of TP53 in human diploid fibroblasts strain WI38. The frequencies of cell-in-cell structures were determined for at least 300 cells in 3 independent experiments (mean+/−s.e.m, p<0.001).
# After inactivation of TP53 or Δ133TP53, primary human fibroblasts, primary human keratinocytes, colorectal carcinoma Tp53^+/+ HCT116 cells and pancreatic PANC813 cells were incubated during 24 hours in presence or in absence of indicated concentrations of the pharmacological inhibitor of purinergic P2Y2 receptor Kaempferol (Sigma), the pharmacological inhibitor of ROCK Y27632 (Sigma) or the pan-caspase inhibitor zVAD-fmk (100 uM, BD Biosciences), ATP, UTP and soluble apyrase used in indicated experiments were obtained from Sigma.
# After 48 hours of transfection with specific indicated siRNA, cells were stained with 10 μM of 5-chloromethylfluorescein diacetate (Cell Tracker Green CMFDA, Invitrogen) or with 10 μM of 5-(and-6)-(((4-Chloromethyl)Benzoyl)Amino)Tetramethylrhodamine (CMTMR, Invitrogen) and cocultured for indicated time. […]
# caspase-3 = assay: Cleavage of caspase-3 by immunoblot; design: dose or concentration left out as unconfirmed; conditions: cisplatin, positive control
# Method: FIG. 7. Effects of TP53 inactivation on cellular cannibalism. (A) Detection of cell-in-cell structures induced by depletion of TP53, as visualized by confocal microscopy. […] Images are representative of at least four independent experiments. (B) Detection of cell-in-cell structures induced by depletion of TP53 by light microscopy. (C) Time-lapse imaging of cellular cannibalism detected after depletion of TP53 on HCT116 cells. After 48 hours of transfection with siRNA against TP53, cells were stained as previously described with CMFDA and CMTMR cell trackers and cocultured under time-lapse confocal videomicroscopy. Indicated numbers represent hours and minutes. […] After 48 hours of TP53 knockdown, cleavage of caspase-3 was analyzed by immunoblot. […] Mitotic events and cellular cannibalism were detected and recorded during approximately fifteen hours. […] ROCK activity was determined by detecting the phosphorylation of myosin light chain 2 on serine 19 (MLC2S19*). […] TP53 knocked down, or TP53 knocked out HCT116 cells were analyzed for MLC2S19*, MLC2 or TP53 by immunoblot. […] Tp53^−/+ and Tp53^−/− HCT116 cells are fixed and analyzed by electron microscopy. […] HCT116 cells were transfected with specific siRNAs for TP53 during 48 hours and expression of TP53 (H) or MLCS19* (I) were determined by immunoblots. […]
# HCT116 cells [2] = assay: Release of ATP by ATP-dependent bioluminescence (Enliten ATP assay); conditions: HCT116 treated with 10 μM CDDP
# Method: FIG. 11. Extracellular ATP and purinergic receptor P2Y2 participate in cellular cannibalism. (A.) Detection of cellular cannibalism after cis-platinium (CDDP) or γ-irradiation (IR) treatment. After 24 hours treatment with 10 μM CDDP or irradiation (IR) with 4 grays, half cell population of colon carcinoma HCT116 cells were stained with green CMFDA cell tracker or with red CMTMR cell tracker and analyzed for cellular cannibalism by confocal microscopy after 24 hours of coculture in presence or in absence of 20 μM of ROCK inhibitor (YI27632) or 100 μM of pan-caspase inhibitor (zVAD). The frequencies of cannibal cells were determined for at least 300 cells in 3 independent experiments (mean+/−s.e.m, *p<0.001). (B-D) Detection of ATP release after stimulation with senescent-induced stresses. Release of ATP on HCT116 cells treated with 10 μM CDDP (B) or 4 gray γ-irradiation (IR) (B) Of depleted for p53 (C) or Δ133p53 (C) was determined 2 hours after the beginning of coculture using ATP-dependent bioluminescence in 3 independent experiments, (D) Effect of ROCK inhibitor on ATP release detected after p53 inactivation. Release of ATP was detected as previously described in presence or in absence of 20 μM of Y27632 (mean+/−s.e.m, *p<0.001). […] The frequencies of cell-in-cell structures were determined for at least 300 cells in 3 independent experiments (mean+/−s.e.m, *p<0.001). […]
# [3] = system: P2Y2 purinergic receptors; assay: P2Y2 expression by immunoblot; conditions: HCT116 treated with 10 μM CDDP
molecule,measurement,setting,value
"Nc1ncnc2c1ncn2C1OC(CO[P@SP3](=O)(O)O[P@SP3](=O)(O)O[P@SP3](=O)(O)O)C(O)C1O (stereo not drawn) [ATP, Adenosine-5′-triphosphate]",generation of cell-in-cell structures after supplementation with nucleotide,HCT116 cells [1]; HCT116,strongly enhanced the ROCK-dependent generation of cell-in-cell structures
O=c1ccn([C@@H]2O[C@H](COP(=O)(O)OP(=O)(O)OP(=O)(O)O)[C@@H](O)[C@H]2O)c(=O)[nH]1 [UTP],generation of cell-in-cell structures after supplementation with nucleotide,HCT116 cells [1]; HCT116,strongly enhanced the ROCK-dependent generation of cell-in-cell structures
C[C@@H](N)[C@H]1CC[C@H](C(=O)Nc2ccncc2)CC1 [Y26732],generation of cell-in-cell structures after TP53 inactivation in presence of inhibitor,HCT116 cells [1],prevented the generation of cell-in-cell structures
N.N.[Cl][Pt][Cl] [cisplatin],cleavage of caspase-3,caspase-3,intense cleavage of caspase-3
same,release of ATP,HCT116 cells [2],released ATP shortly after treatments
same,expression of the P2Y2 purinergic receptors,[3],enhanced the expression of the P2Y2 purinergic receptors
Cc1ccc(C(=O)Cn2c3c(sc2=N)CCCC3)cc1 [pifithrin-α],cell-in-cell structures induced by pharmacological inactivation of TP53,"HCT116 cells [1]; HCT116, 10 μM PFT-α, 24 hours coculture",induced cell-in-cell structures
Z-VAD-fmk,generation of cell-in-cell structures after TP53 inactivation in presence of inhibitor,HCT116 cells [1],not affected
apyrase,cellular internalization induced by the depletion of TP53 or Δ133TP53,"HCT116 cells [1]; HCT116, different concentrations of apyrase",reduced cellular internalization
